Test results as given in patent US12202818B2, “Compounds and methods for CD73 modulation and indications therefor” (Opna Bio SA, priority 2020, dated 2025).

Experiments:
[1] = target: T1, Human CD73 (amino acid residues 27-549) (Homo sapiens, UniProt P21589); assay: CD73 enzymatic assay (luciferase-based indirect assay, CellTiter-Glo); format: biochemical; settings: 0.4 nM CD73, 150 μM AMP, 1 hour at room temperature
T1 construct: Human CD73 (amino acid residues 27-549); His tag (N); made in house; host or cells: E. coli
T1 sequence (P21589 27-549): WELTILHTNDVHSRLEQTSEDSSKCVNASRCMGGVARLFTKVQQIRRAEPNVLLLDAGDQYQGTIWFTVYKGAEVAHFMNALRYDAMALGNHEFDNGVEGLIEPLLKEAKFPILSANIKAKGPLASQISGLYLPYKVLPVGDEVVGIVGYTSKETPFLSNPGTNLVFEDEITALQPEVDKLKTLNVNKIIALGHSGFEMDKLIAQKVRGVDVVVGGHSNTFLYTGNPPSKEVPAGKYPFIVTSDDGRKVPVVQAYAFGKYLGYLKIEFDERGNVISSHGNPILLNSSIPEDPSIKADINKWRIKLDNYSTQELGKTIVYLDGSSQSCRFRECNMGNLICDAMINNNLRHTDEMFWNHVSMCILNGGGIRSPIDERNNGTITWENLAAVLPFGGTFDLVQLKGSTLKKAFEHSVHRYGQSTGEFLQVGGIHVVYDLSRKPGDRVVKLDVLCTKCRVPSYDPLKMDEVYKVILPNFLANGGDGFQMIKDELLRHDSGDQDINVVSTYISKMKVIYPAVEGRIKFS
Protocol: CD73 enzymatic activity was measured in a luciferase-based indirect assay using CellTiter-Glo® system from Promega. The luciferase reaction in the presence of ATP is inhibited by AMP, a primary substrate of CD73. Addition of CD73 enzyme to the reaction converts AMP to adenosine, and release the inhibition, producing a luminescent signal. Inhibition of CD73 leads to the decrease of this luminescent signal.
Human CD73 (amino acid residues 27-549) with N-Terminal His tag was purified in E. coli. All the assay components were prepared in 50 mM HEPEs buffer (pH 7.4) with 0.01% Tween-20. The CD73 enzymatic assay was performed using 0.4 nM CD73 and 150 μM AMP. 9.5 μL of CD73 protein and 9.5 μL of AMP were added to the wells of a 384 well plate containing lpL of various concentrations of test compound or DMSO vehicle and incubated for 1 hour at room temperature. 16 wells containing CD73, AMP and 5% DMSO served as high control. 16 wells containing AMP and 5% DMSO served as low control. Enzymatic reaction was stopped and AMP level was measured indirectly by adding 5 μL of CellTiter-Glo® 2.0 reagent and 5 μL of ATP with a final concentration of 1 μM. Following incubation of the plate at room temperature for 30 minutes, luminescent signal was read on a Tecan plate reader. The percentage inhibition at individual concentrations relative to high and low controls was calculated. The data were analyzed by using nonlinear regression to generate IC50 values.

[2] = target: T2, human CD73 (Homo sapiens, UniProt P21589); assay: Inhibitor activity against CD73 in cell based assay (CD73 expressing CHO-K1 cells); settings: CHO-K1 cells expressing human CD73, 150 μM AMP, 4 hours of incubation; read-out: CHO-K1 CELL_VARIANT: CD73 IC50
T2 construct: expressed in transfected cells
T2 sequence (P21589 27-549): T1 sequence (P21589 27-549)
Protocol: Determine Inhibitor Activity Against CD73 in Cell Based Assay
CD73 expressing CHO-K1 cell clones were generated upon stable transfection of a plasmid expressing human CD73 under the control of CMV promoter. Cells were selected in Ham's F-12K (Kaighn's) media supplemented with 10% fetal bovine serum and 1 mg/ml G418 at 37° C. in a humidified incubator supplied with 5% CO2. The assays were performed as follows. Cells were seeded in a 96 well plate in 50 μL of culture media at a density of 1×10^4 per well. Compound at a maximal concentration of 5 mM was serially diluted 1:3 in DMSO for a total of 8 point titration. A 2 μL aliquot of each dilution point was added to […] culture media and 25 µL was added to each well, providing 10 μM compound at the maximum concentration point. AMP was diluted in culture media and 25 μL was added to each well with a final concentration of 150 μM. 4 wells containing 0.2% DMSO treated cells and AMP served as high controls and 4 wells containing media only with 0.2% DMSO and AMP served as low controls. After 4 hours of incubation, 20 μL of the supernatant was transferred to a 384 well plate. AMP level in supernatant was measured indirectly by adding 5 μL of CellTiter-Glo® 2.0 reagent and 5 μL of ATP with a final concentration of 1 μM. Following incubation of plate at room temperature for 30 minutes, luminescent signal was read on a Tecan plate reader. The percentage inhibition at individual concentrations relative to high and low controls was calculated. The data were analyzed by using nonlinear regression to generate ICso values.

Row | SMILES | IC50 [1] [µM] | IC50 [2] [µM]
1 | CC(C)N1CCN(c2ccnc(O[C@@H]3CCN(c4cn[nH]c(=O)c4Cl)C3)c2)CC1 [P-0003, (R)-4-chloro-5-(3-((4-(4-isopropylpiperazin-1-yl)pyridin-2-yl)oxy)pyrrolidin-1-yl)pyridazin-3(2H)-one] | 0.001 to 10 | 0.001 to 10
2 | CC1(CN2CCC(c3ccnc(O[C@@H]4CCN(c5cn[nH]c(=O)c5Cl)C4)c3)CC2)COC1 [P-0005, (R)-4-chloro-5-(3-((4-(1-((3-methyloxetan-3-yl)methyl)piperidin-4-yl)pyridin-2-yl)oxy)pyrrolidin-1-yl)pyridazin-3(2H)-one] | 0.001 to 10 | 0.001 to 10
3 | CC1CNCCC1c1ccnc(O[C@@H]2CCN(c3cn[nH]c(=O)c3Cl)C2)c1 (stereo partly drawn) [P-0009, 4-chloro-5-((3R)-3-((4-(3-methylpiperidin-4-yl)pyridin-2-yl)oxy)pyrrolidin-1-yl)pyridazin-3(2H)-one] | 0.001 to 10 | 0.001 to 10
4 | O=c1[nH]ncc(N2CC[C@@H](Oc3cc(C4CCN(CC(O)C(F)(F)F)CC4)ccn3)C2)c1Cl (stereo partly drawn) [P-0011, 4-chloro-5-((3R)-3-((4-(1-(3,3,3-trifluoro-2-hydroxypropyl)piperidin-4-yl)pyridin-2-yl)oxy)pyrrolidin-1-yl)pyridazin-3(2H)-one] | 0.001 to 10 | 0.001 to 10
5 | O=c1[nH]ncc(N2CC[C@@H](Oc3cc(C4CC5CCC(C4)N5)ccn3)C2)c1Cl (stereo partly drawn) [P-0012, 5-((3R)-3-((4-(8-azabicyclo[3.2.1]octan-3-yl)pyridin-2-yl)oxy)pyrrolidin-1-yl)-4-chloropyridazin-3(2H)-one] | 0.001 to 10 | 0.001 to 10
6 | O=c1[nH]ncc(N2CC[C@@H](Oc3cc(N4CC5CCC(C4)N5)ccn3)C2)c1Cl [P-0013, 5-((3R)-3-((4-(3,8-diazabicyclo[3.2.1]octan-3-yl)pyridin-2-yl)oxy)pyrrolidin-1-yl)-4-chloropyridazin-3(2H)-one] | 0.001 to 10 | 0.001 to 10
7 | O=C(CO)N1CCC(c2ccnc(O[C@@H]3CCN(c4cn[nH]c(=O)c4Cl)C3)c2)CC1 [P-0016, (R)-4-chloro-5-(3-((4-(1-(2-hydroxyacetyl)piperidin-4-yl)pyridin-2-yl)oxy)pyrrolidin-1-yl)pyridazin-3(2H)-one] | 0.001 to 10 | 0.001 to 10
8 | O=c1[nH]ncc(N2CC[C@@H](Oc3cc(C4CCNC4)ccn3)C2)c1Cl (stereo partly drawn) [P-0018, 4-chloro-5-((3R)-3-((4-(pyrrolidin-3-yl)pyridin-2-yl)oxy)pyrrolidin-1-yl)pyridazin-3(2H)-one] | 0.001 to 10 | 0.001 to 10
9 | Cc1nn(C2COC2)c(C)c1-c1cc(O[C@@H]2CCN(c3cnn(CCO)c(=O)c3Cl)C2)ncc1F [P-0020, (R)-4-chloro-5-(3-((4-(3,5-dimethyl-1-(oxetan-3-yl)-1H-pyrazol-4-yl)-5-fluoropyridin-2-yl)oxy)pyrrolidin-1-yl)-2-(2-hydroxyethyl)pyridazin-3(2H)-one] | 0.001 to 10 | 0.001 to 10

Next, values leading:

Row | IC50 [1] [µM] | IC50 [2] [µM] | SMILES
10 | 0.001 to 10 | 0.001 to 10 | O=c1[nH]ncc(N2CC[C@@H](Oc3cc(-c4cnn(C5CCNCC5)c4)ccn3)C2)c1Cl [P-0002, (R)-4-chloro-5-(3-((4-(1-(piperidin-4-yl)-1H-pyrazol-4-yl)pyridin-2-yl)oxy)pyrrolidin-1-yl)pyridazin-3(2H)-one]
11 | 0.001 to 10 | 0.001 to 10 | CN1C2CCC1CN(c1ccnc(O[C@@H]3CCN(c4cn[nH]c(=O)c4Cl)C3)c1)C2 [P-0004, 4-chloro-5-((3R)-3-((4-(8-methyl-3,8-diazabicyclo[3.2.1]octan-3-yl)pyridin-2-yl)oxy)pyrrolidin-1-yl)pyridazin-3(2H)-one]
12 | 0.001 to 10 | 0.001 to 10 | Cc1nn(C(CO)CO)c(C)c1-c1cc(O[C@H]2CN(c3cnn(CCO)c(=O)c3Cl)C[C@@H]2F)ncc1F [P-0006, 4-chloro-5-((3S,4S)-3-((4-(1-(1,3-dihydroxypropan-2-yl)-3,5-dimethyl-1H-pyrazol-4-yl)-5-fluoropyridin-2-yl)oxy)-4-fluoropyrrolidin-1-yl)-2-(2-hydroxyethyl)pyridazin-3(2H)-one]
13 | 0.001 to 10 | 0.001 to 10 | Cc1nn(C2COC2)c(C)c1-c1cc(O[C@H]2CN(c3cnn(CCO)c(=O)c3Cl)C[C@@H]2F)ncc1F [P-0007, 4-chloro-5-((3S,4S)-3-((4-(3,5-dimethyl-1-(oxetan-3-yl)-1H-pyrazol-4-yl)-5-fluoropyridin-2-yl)oxy)-4-fluoropyrrolidin-1-yl)-2-(2-hydroxyethyl)pyridazin-3(2H)-one]
14 | 0.001 to 10 | 0.001 to 10 | CN1CCC(c2ccnc(O[C@@H]3CCN(c4cn[nH]c(=O)c4Cl)C3)c2)CC1 [P-0008, (R)-4-chloro-5-(3-((4-(1-methylpiperidin-4-yl)pyridin-2-yl)oxy)pyrrolidin-1-yl)pyridazin-3(2H)-one]
15 | 0.001 to 10 | 0.001 to 10 | CC(C)(O)CN1CCC(c2ccnc(O[C@@H]3CCN(c4cn[nH]c(=O)c4Cl)C3)c2)CC1 [P-0010, (R)-4-chloro-5-(3-((4-(1-(2-hydroxy-2-methylpropyl)piperidin-4-yl)pyridin-2-yl)oxy)pyrrolidin-1-yl)pyridazin-3(2H)-one]
16 | 0.001 to 10 | 0.001 to 10 | Cc1nn(CC(C)(C)O)c(C)c1-c1cc(O[C@@H]2CCN(c3cnn(CCO)c(=O)c3Cl)C2)ncn1 [P-0014, (R)-4-chloro-5-(3-((6-(1-(2-hydroxy-2-methylpropyl)-3,5-dimethyl-1H-pyrazol-4-yl)pyrimidin-4-yl)oxy)pyrrolidin-1-yl)-2-(2-hydroxyethyl)pyridazin-3(2H)-one]
17 | 0.001 to 10 | 0.001 to 10 | Cc1nn(CC(C)(C)O)c(C)c1-c1ccnc(O[C@H]2CN(c3cnn(CCO)c(=O)c3Cl)C[C@@H]2F)c1 [P-0015, 4-chloro-5-((3S,4S)-3-fluoro-4-((4-(1-(2-hydroxy-2-methylpropyl)-3,5-dimethyl-1H-pyrazol-4-yl)pyridin-2-yl)oxy)pyrrolidin-1-yl)-2-(2-hydroxyethyl)pyridazin-3(2H)-one]
18 | 0.001 to 10 | 0.001 to 10 | Cc1nn(CC(C)(C)O)c(C)c1-c1ccnc(O[C@@H]2CCN(c3cnn(CCO)c(=O)c3Cl)C2)c1 [P-0017, (R)-4-chloro-5-(3-((4-(1-(2-hydroxy-2-methylpropyl)-3,5-dimethyl-1H-pyrazol-4-yl)pyridin-2-yl)oxy)pyrrolidin-1-yl)-2-(2-hydroxyethyl)pyridazin-3(2H)-one]
19 | 0.001 to 10 | 0.001 to 10 | Cc1nn(CC(C)(C)O)c(C)c1-c1ccnc(O[C@H]2CN(c3cn[nH]c(=O)c3Cl)C[C@@H]2F)c1 [P-0021, 4-chloro-5-((3S,4S)-3-fluoro-4-((4-(1-(2-hydroxy-2-methylpropyl)-3,5-dimethyl-1H-pyrazol-4-yl)pyridin-2-yl)oxy)pyrrolidin-1-yl)pyridazin-3(2H)-one]
20 | 0.001 to 10 | 0.001 to 10 | Cc1nn(C2CC2)c(C)c1-c1ccnc(O[C@@H]2CCN(c3cn[nH]c(=O)c3Cl)C2)c1 [P-0022, (R)-4-chloro-5-(3-((4-(1-cyclopropyl-3,5-dimethyl-1H-pyrazol-4-yl)pyridin-2-yl)oxy)pyrrolidin-1-yl)pyridazin-3(2H)-one]
